In brackets after ≈: the same amount, converted by molar mass. Non-standard residues stand in square brackets, D forms with d. Residues, ends and D or L forms follow the SMILES beside them. *: point of attachment. Palmitoyl = CCCCCCCCCCCCCCCC(=O)*; Myristoyl = CCCCCCCCCCCCCC(=O)*; Undecanoyl = CCCCCCCCCCC(=O)*; Lauroyl = CCCCCCCCCCCC(=O)*
Assays:
Type in all cases: cell-based
[1] = system: Aspergillus fumigatus ATCC 26430; experiment: microbe, parasite or virus in culture; settings: for Minimal Inhibitory Concentration, A. fumigatus ATCC 26430: ATCC 26430, pH 7.4
[2] = system: Cryptococcus neoformans ATCC 66031; experiment: microbe, parasite or virus in culture; settings: ATCC 66031, pH 7.4
Description: (§1) The antifungal activity of the lipopeptides was examined in sterile 96-well plates (Nunc F96 microtiter plates) in a final volume of 200 μL as follows: 100 µl of a suspension containing fungi at a concentration of 1×10^4 Colony-Forming Units (CFU)/ml in culture medium (RPMI 1640, 0.165 M MOPS with L-glutamine, without NaHCO3) at pH 7.4 or pH 5.5 (adjustment of the pH was done by diluted solutions of HCl and NaOH) were added to 100 μl of water containing the peptide in serial 2-fold dilutions in water. The fungi were incubated in the presence of the lipopeptides for 24-48 h at 35° C. in a Binder KB115 incubator under agitation. Growth inhibition was determined by measuring the absorbance at 620 nm with a Microplate autoreader E1309 (Bio-Tek Instruments). Antifungal activity is expressed as the minimal inhibitory concentration (MIC), the concentration at which 100% inhibition of fungi growth was observed after the incubation time mentioned above. The fungi used were: Aspergillus niger ATCC 9642, Candida albicans ATCC 10231 and Cryptococcus neoformans ATCC 66031. If not indicated otherwise, the fungi growth was detected at pH 7.4.

[3] = system: Candida albicans ATCC 10231; experiment: microbe, parasite or virus in culture; settings: for Minimal Inhibitory Concentration, C. albicans ATCC 10231: ATCC 10231, pH 7.4; for MIC: ATCC 10231, read-out: Minimal Inhibitory Concentration, Candida Albicans (ATCC 10231)
Description: as §1

[4] = system: Staphylococcus aureus ATCC 6538P; settings: for Minimal Inhibitory Concentration, S. aureus: ATCC 6538, pH 7.4
Description: (§2) The antibacterial activity of the lipopeptides was examined in sterile 96-well plates (Nunc F96 microtiter plates) in a final volume of 100 μl as follows: Aliquots (50 μl) of a suspension containing bacteria at concentration of 1×10^6 Colony-Forming Units (CFU)/ml in culture LB (Lauria broth) medium (pH 7.4 or pH 5.5) were added to 50 μl of water containing the lipopeptide in serial 2-fold dilutions in water. Adjustment of the pH was done by diluted solutions of HCl and NaOH Inhibition of growth was determined by measuring the absorbance at 600 nm with a Microplate autoreader E1309 (Bio-Tek Instruments), after an incubation time of 18-20 h at 37° C. Antibacterial activities were expressed as the minimal inhibitory concentration (MIC), the concentration at which 100% inhibition of growth was observed after 18-20 h of incubation. The bacteria used were: Escherichia coli ATCC 25922, Acinetobacter baumannii ATCC 19606, Pseudomonas aeruginosa ATCC 27853, Staphylococcus aureus ATCC 6538P, Enterococcus faecalis ATCC 29212, Enterobacter cloacae ATCC 49141. The antibacterial activity of lipopeptides was also examined against resistant bacteria: methicilin-resistant Staphylococcus aureus (MRSA) ATCC 700698 and vancomycin-resistant Enterococcus faecium (VRE) ATCC 700221. If not indicated otherwise, the bacterial growth was detected at pH 7.4.

[5] = system: Pseudomonas aeruginosa ATCC 27853; settings: for Minimal Inhibitory Concentration, P. Aeruginosa: ATCC 27853, pH 7.4
Description: as §2

[6] = system: Enterobacter cloacae ATCC 49141; settings: ATCC 49141, pH 7.4
Description: as §2

[7] = system: Escherichia coli ATCC 25922; settings: for Minimal Inhibitory Concentration, E. coli: ATCC 25922, pH 7.4
Description: as §2

[8] = system: Enterococcus faecalis ATCC 29212; settings: ATCC 29212, pH 7.4
Description: as §2

[9] = system: methicilin-resistant Staphylococcus aureus (MRSA) ATCC 700698; settings: for Minimal Inhibitory Concentration, S. aureus (MRSA): ATCC 700698, pH 7.4
Description: as §2

[10] = system: Cryptococcus neoformans ATCC MYA-422; experiment: microbe, parasite or virus in culture; settings: Table 17, D-magainin analog; mean of 3 experiments, standard deviation of 25%; read-out: Minimal Inhibitory Concentration, Cyrptococcus neoformans (ATCC MYA-422)
[11] = system: human red blood cells (hRBC); experiment: Hemolytic activity, release of hemoglobin at 540 nm
Description: Fresh human red blood cells (hRBC) with EDTA were rinsed 3 times with PBS (35 mM phosphate buffer/0.15 M NaCl, pH 7.3) by centrifugation for 10 min at 800 g and resuspended in PBS. Peptides dissolved in PBS were then added to 50 μl of a solution of the stock hRBC in PBS to reach a final volume of 100 μl (final erythrocyte concentration, 4% v/v). The resulting suspension was incubated under agitation for 60 min at 37° C. The samples were then centrifuged at 800×g for 10 min. Release of hemoglobin was monitored by measuring the absorbance of the supernatant at 540 nm. Controls for zero hemolysis (blank) and 100% hemolysis consisted of hRBC suspended in PBS and Triton 1%, respectively.

B. subtilis ATCC 6051 = settings: ATCC 6051
[12] = system: Acinetobacter baumannii ATCC 19606; settings: ATCC 19606, pH 7.4
Description: as §2

SMILES	Minimal Inhibitory Concentration, A. fumigatus ATCC 26430 [1] [µM]	Minimal Inhibitory Concentration, C. neoformans ATCC 66031 [2] [µM]	Minimal Inhibitory Concentration, C. albicans ATCC 10231 [3] [µM]	Minimal Inhibitory Concentration, S. aureus [4] [µM]	Minimal Inhibitory Concentration, P. Aeruginosa [5] [µM]	Minimal Inhibitory Concentration, E. cloacae [6] [µM]	Minimal Inhibitory Concentration, E. coli [7] [µM]	Minimal Inhibitory Concentration, E. faecalis [8] [µM]	Minimal Inhibitory Concentration, S. aureus (MRSA) [9] [µM]	MIC [10] [µM]	Minimal Inhibitory Concentration, Aspergillus fumigatus (ATCC 26430) [1] [µM]	% of Hemolytic activity at maximal MIC ([11]; human) [%]	MIC [3] [µM]	Minimal Inhibitory Concentration, S. aureus ATCC 6538P [4] [µM]	Minimal Inhibitory Concentration, P. aeruginosa ATCC 27853 [5] [µM]	Minimal Inhibitory Concentration, E. coli (ATCC 25922) [7] [µM]	Minimal Inhibitory Concentration, B. subtilis (ATCC 6051) (B. subtilis ATCC 6051) [µM]	hemolytic activity ([11]; up to a concentration of 25 μM, human red blood cells (FIGS. 6-7))	Minimal Inhibitory Concentration, A. Baumaannii [12] [µM]	activity against MRSA ([9]; in words, summary of Table 4)
CCCCCCCCCCCCCC(=O)N[C@H](CCCCN)C(=O)NCC(=O)NCC(=O)NCC(=O)N[C@H](CCCCN)C(=O)NCC(=O)NCC(=O)NCC(=O)N[C@H](CCCCN)C(=O)NCC(=O)NCC(=O)N[C@H](CCCCN)C(N)=O [lipopeptide 1, (CH3—(CH2)12—CO—)-D-Lys-Gly-Gly-Gly-D-Lys-Gly-Gly-Gly-D-Lys-Gly-Gly-D-Lys-NH2] (Myristoyl-[dK]GGG[dK]GGG[dK]GG[dK]-NH2)	6.25	6.25	3.125	6.25	6.25	3.125	12.5	3.125	6.25											
CCCCCCCCCCCCCCCC(=O)NCC(=O)N[C@H](C(=O)NCC(=O)N[C@@H](CCCCN)C(=O)N[C@@H](Cc1ccccc1)C(=O)N[C@H](CC(C)C)C(=O)N[C@@H](Cc1c[nH]cn1)C(=O)N[C@@H](CO)C(=O)N[C@@H](C)C(=O)N[C@H](CCCCN)C(=O)N[C@@H](CCCCN)C(=O)N[C@@H](Cc1c[nH]c2ccccc12)C(=O)NCC(=O)N[C@@H](CCCCN)C(=O)N[C@@H](C)C(=O)N[C@H](Cc1ccccc1)C(=O)N[C@H](C(=O)NCC(=O)N[C@H](CCC(=O)O)C(=O)N[C@H](C(=O)N[C@@H](CCSC)C(=O)N[C@@H](CC(N)=O)C(=O)N[C@@H](CO)C(N)=O)[C@@H](C)CC)C(C)C)[C@@H](C)CC [[D]4magainin-PA] (Palmitoyl-GIGKF[dL]HSA[dK]KWGKA[dF]VG[dE]IMNS-NH2)										6.25 (≈ 17.1 µg/mL)	>50	8	>50	>50	>50	>50	50			
CCCCCCCCCCCC(=O)N[C@H](CC(C)C)C(=O)N[C@@H](Cc1cnc[nH]1)C(=O)N[C@@H](Cc1cnc[nH]1)C(=O)N[C@H](CC(C)C)C(=O)N[C@H](CC(C)C)C(=O)N[C@@H](Cc1cnc[nH]1)C(=O)N[C@@H](Cc1cnc[nH]1)C(=O)N[C@H](CC(C)C)C(=O)N[C@H](CC(C)C)C(=O)N[C@@H](Cc1cnc[nH]1)C(=O)N[C@@H](Cc1cnc[nH]1)C(=O)N[C@H](CC(C)C)C(N)=O [lipopeptide 26, (CH3-(CH2)10-CO-)-D-Leu-His-His-D-Leu-D-Leu-His-His-D-Leu-D-Leu-His-His-D-Leu-NH2] (Lauroyl-[dL]HH[dL][dL]HH[dL][dL]HH[dL]-NH2)																		do not exert hemolytic activity		
CCCCCCCCCCC(=O)N[C@@H](CCCCN)C(=O)N[C@@H](CC(C)C)C(=O)N[C@H](CC(C)C)C(=O)N[C@H](CC(C)C)C(=O)N[C@@H](CCCCN)C(=O)N[C@@H](CC(C)C)C(=O)N[C@@H](CC(C)C)C(=O)N[C@H](CC(C)C)C(=O)N[C@@H](CCCCN)C(=O)N[C@H](CC(C)C)C(=O)N[C@@H](CC(C)C)C(=O)N[C@@H](CCCCN)C(N)=O [lipopeptide 10, (CH3—(CH2)9—CO—)-Lys-Leu-D-Leu-D-Leu-Lys-Leu-Leu-D-Leu-Lys-D-Leu-Leu-Lys-NH2] (Undecanoyl-KL[dL][dL]KLL[dL]K[dL]LK-NH2)	6.25	1.56	3.125	3.125	3.25	1.56	6.25	3.125	3.125										3.125	highly active
CCCCCCCCCCCCCCCC(=O)N[C@@H](CCCCN)C(=O)NCC(=O)NCC(=O)NCC(=O)N[C@@H](CCCCN)C(=O)NCC(=O)NCC(=O)NCC(=O)N[C@@H](CCCCN)C(=O)NCC(=O)NCC(=O)N[C@@H](CCCCN)C(N)=O [lipopeptide 4, (CH3—(CH2)14—CO—)-Lys-Gly-Gly-Gly-Lys-Gly-Gly-Gly-Lys-Gly-Gly-Lys-NH2] (Palmitoyl-KGGGKGGGKGGK-NH2)	6.25	1.56	3.125	12.5	6.25	50	25	12.5	12.5										25	
CC[C@H](C)[C@H](NC(=O)CN)C(=O)NCC(=O)N[C@@H](CCCCN)C(=O)N[C@@H](Cc1ccccc1)C(=O)N[C@H](CC(C)C)C(=O)N[C@@H](Cc1c[nH]cn1)C(=O)N[C@@H](CO)C(=O)N[C@@H](C)C(=O)N[C@H](CCCCN)C(=O)N[C@@H](CCCCN)C(=O)N[C@@H](Cc1c[nH]c2ccccc12)C(=O)NCC(=O)N[C@@H](CCCCN)C(=O)N[C@@H](C)C(=O)N[C@H](Cc1ccccc1)C(=O)N[C@H](C(=O)NCC(=O)N[C@H](CCC(=O)O)C(=O)N[C@H](C(=O)N[C@@H](CCSC)C(=O)N[C@@H](CC(N)=O)C(=O)N[C@@H](CO)C(N)=O)[C@@H](C)CC)C(C)C [[D]4magainin, Gly-Ile-Gly-Lys-Phe-D-Leu-His-Ser-Ala-D-Lys-Lys-Trp-Gly-Lys-Ala-D-Phe-Val-Gly-D-Glu-Ile-Met-Asn-Ser-NH2, reference compound] (H-GIGKF[dL]HSA[dK]KWGKA[dF]VG[dE]IMNS-NH2; N-terminus assumed)										>50	>50		>50	>50	>50	>50	50			

From patent US8445636B2, “Antimicrobial and anticancer lipopeptides” (Yeda Research & Development Co. Ltd., priority 2003, dated 2013)
